The values below come from patent US7008945B1, “Amide derivatives” (AstraZeneca AB, priority 1999, dated 2006).

The target in one test is T1, p38α (Homo sapiens, UniProt Q16539).
T1 construct: c-myc (N); 6His (N); made in house; host or cells: E. coli (PET vectors)
Nature of the test: In vitro enzyme assay, p38α. It counts as biochemical. Particulars: read-out: IC50 against p38α. Here is the method: (§1) The ability of compounds of the invention to inhibit the enzyme p38 kinase was assessed. Activity of test compounds against each of the p38α and p38β isoforms of the enzyme was determined. […]
(§2) Test compounds were solubilised in DMSO and 10 μl of a 1:10 diluted sample in ‘Kinase Buffer’ was added to a well in a Microtiter plate. […] The precipitated protein was phosphorylated by p38 kinase and test compounds were assessed for their ability to inhibit this phosphorylation. The plates were filtered using a Canberra Packard Unifilter and washed with 2% TCA, dried overnight and counted on a Top Count scintillation counter.
(§3) Test compounds were tested initially at a single dose and active compounds were retested to allow IC50 values to be determined.

Another test relates to TNFα production. Nature of the test: Human Whole Blood test (LPS-stimulated TNFα production). The test is classed as cell-based. Particulars: inhibition of TNFα production in LPS-stimulated human whole blood. Here is the method: The ability of the compounds of this invention to inhibit TNFα production was also assessed in a human whole blood assay. Human whole blood secretes TNFα when stimulated with LPS. This property of blood forms the basis of an assay which is used as a secondary test for compounds which profile as active in the PBMC test.
Heparinised (10 units/ml) human blood was obtained from volunteers. 160 μl whole blood were added to 96 well round-bottom plates (Corning 25850). Compounds were solubilised and serially diluted in RPMI 1640 medium (Gibco) supplemented with 50 units/ml penicillin, 50 μg/ml streptomycin and 2 mM glutamine, as detailed above. 20 μl of each test concentration was added to appropriate wells (triplicate cultures), 20 μl of RPMI 1640 medium supplemented with antibiotics and glutamine was added to control wells. Plates were incubated for 30 minutes at 37° C. (humidified incubator), prior to addition of 20 μl LPS (final concentration 10 μg/ml). RPMI 1640 medium was added to control wells. Six “LPS alone” and four “medium alone” controls were included on each plate. A known TNFα synthesis/secretion inhibitor was included in each test. Plates were incubated for 6 hours at 37° C. (humidified incubator). Plates were centrifuged (2000 rpm for 10 minutes) and 100 μl plasma removed and stored at −70° C. (Corning 25850 plates). TNFα levels were measured by ELISA (see WO92/10190 and Current Protocols in Molecular Biology, vol 2 by Frederick M. Ausbel et al., John Wiley and Sons Inc.). The paired antibodies that were used in the ELIZA were obtained from R&D Systems (catalogue nos. MAB610 anti-human TNFA coating antibody, BAF210 biotinylated anti-human TNFα detect antibody).

The next test concerns the target T2, p38β (Homo sapiens, UniProt Q15759).
T2 construct: Human recombinant p38α and p38β isoforms were produced as 5′ c-myc, 6His tagged proteins; fused on or other part: N-terminal c-myc and 6His tags
Description: In vitro enzyme assay, p38β. Particulars: read-out: IC50 against p38β. The test is classed as biochemical. How it is done: as §1, §2, §3

T1 sequence (Q16539 whole entry): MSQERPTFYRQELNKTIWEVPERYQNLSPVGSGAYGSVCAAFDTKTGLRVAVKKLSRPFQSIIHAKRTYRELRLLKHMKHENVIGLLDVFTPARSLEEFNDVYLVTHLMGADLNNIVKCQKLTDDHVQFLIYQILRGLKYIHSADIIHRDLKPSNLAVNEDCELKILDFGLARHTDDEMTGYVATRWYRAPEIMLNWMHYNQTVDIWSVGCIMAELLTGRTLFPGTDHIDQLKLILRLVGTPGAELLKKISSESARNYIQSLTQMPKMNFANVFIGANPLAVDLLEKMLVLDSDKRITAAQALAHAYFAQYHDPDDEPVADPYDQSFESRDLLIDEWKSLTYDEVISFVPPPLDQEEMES
T2 sequence (Q15759 whole entry, the tested form may be a part, canonical isoform): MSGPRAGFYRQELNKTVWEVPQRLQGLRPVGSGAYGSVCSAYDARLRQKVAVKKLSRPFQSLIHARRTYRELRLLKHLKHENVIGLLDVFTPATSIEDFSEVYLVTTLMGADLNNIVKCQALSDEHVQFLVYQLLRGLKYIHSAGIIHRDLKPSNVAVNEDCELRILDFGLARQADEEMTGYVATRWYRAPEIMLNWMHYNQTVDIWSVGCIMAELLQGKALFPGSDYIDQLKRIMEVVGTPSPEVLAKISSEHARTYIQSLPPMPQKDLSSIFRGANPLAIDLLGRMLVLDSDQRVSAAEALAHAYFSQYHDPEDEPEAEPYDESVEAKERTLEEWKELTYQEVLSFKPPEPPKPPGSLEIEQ

Consider `Cc1ccc(NC(=O)c2ccnc(N3CCOCC3)c2)cc1-n1cnc2ccc(N(C)CCCN(C)C)cc2c1=O` [6-[N-(3-dimethylaminopropyl)-N-methylamino]-3-[2-methyl-5-(2-morpholinopyrid-4-ylcarbonylamino)phenyl]-3,4-dihydroquinazolin-4-one], for which the figures for the IC50 on p38α and in the test with TNFα production were about 0.2 µM and about 2 µM, respectively.

Turning to `Cc1ccc(NC(=O)c2ccnc(N3CCOCC3)c2)cc1-n1cnc2c(N(C)CCCN(C)C)cccc2c1=O` [8-[-(3-dimethylaminopropyl)-N-methylamino]-3-[2-methyl-5-(2-morpholinopyrid-4-ylcarbonylamino)phenyl]-3,4-dihydroquinazolin-4-one], the IC50 (usually the concentration that inhibits the measured activity by half) at p38α was about 0.1 µM; with TNFα production, about 7 µM.

As for `CN(C)CCCN(C)c1ccc2ncn(-c3cccc(NC(=O)c4ccnc(N5CCOCC5)c4)c3)c(=O)c2c1` [6-[N-(3-dimethylaminopropyl)-N-methylamino]-3-[5-(2-morpholinopyrid-4-ylcarbonylamino)phenyl]-3,4-dihydroquinazolin-4-one], the figures for the IC50 at p38β and in the test on TNFα production were about 0.05 µM and about 5 µM, respectively.
